From patent US7081984B1, “Non-linear optical devices and materials therefor” (Qinetiq Limited, priority 1999, dated 2006)
Entries after “also recorded” stand apart in the source; their conditions may differ. Read-outs that look alike come from different tables or passages of the source.

Assays:
[1] = Kurtz and Perry assessment of phase matching properties; type: physicochemical; details: graded powders 550 μm to 40 μm, 12 ns pulses at 1064 nm, fixed input pulse energy
Procedure: The phase matching properties of those more promising materials which performed well in the initial screening have been evaluated using the well established Kurtz and Perry technique (J Appl Phys, 1968, 39, 3798). In this method the SHG intensity (λ=532 nm) is measured as a function of the particle size for a fixed input pulse energy. […] The consequence of this is that the harmonic fields can build up in amplitude thus making the material more desirable for SHG applications.
To perform the Kurtz and Perry test powdered samples of the materials were graded using a mechanical shaker set up with a set of standard sieves (550 μm to 40 μm). The graded powders were then mounted in a thin aluminium holder placed between two glass slides. The following criteria was used to ensure the validity of the method: r<L<D where, • r=average particle size • L=thickness of the powdered sample (i.e. thickness of the aluminium spacer) • D=diameter of the laser beam incident on the sample. In the present experiments, there was at least an order of magnitude difference between these parameters.
The same laser as before was used to provide 12 ns FWHM pulses at 1064 nm. […] The magnitude of the SHG signal was measured as the number of counts using an Optical Multichannel Analyser (OMA) with an intensified array. This was preferred to a photomultiplier tube as it enabled the presence of any fluorescence or abnormal spectral emissions from the sample, for example due to damage etc., to be determined.

[2] = Crystal stability on storage; type: physicochemical; details: on standing after removal from growing solution or in sealed container
[3] = crystals grown from solution by lowering temperature
Procedure: Crystals of M4, M35 and M3 were grown from solution by lowering the temperature of the saturated solutions. The crystal growth equipment consists of a heated tank of water into which the vessel containing the saturated solution of the material is held. The glass tank is heated through a UV block filter by an infra-red lamp. The temperature is controlled by a mercury contact thermometer. The glass tank is covered by aluminium foil to exclude UV in sunlight from entering the glass tank.
(§1) Crystals of M4 have been grown using the equipment described above, both from ethanol and IPA by reduction of temperature of the saturated solutions (12 g of M4 in 820 ml of ethanol) from 40° C. to 25° C. A seed crystal, which had been previously washed with a solvent was suspended from a stirrer and carefully introduced into the saturated solution. […] Several temperature decay rates were tried.
The solubility of M35 has been determined in isopropyl alcohol/water (10:1 ratio) mixture over a temperature range of 5° C. to 40° C.

[4] = transmission spectrum
[5] = judged by eye
Description: The capability for novel materials of the invention to achieve frequency doubling into the blue area of the spectrum was examined. The light source for this investigation was a MOPO (Master Oscillator Power Oscillator) model 730-10 pumped by GCR 270-10 Nd:YAG laser (supplied by Spectra Physics). The incident pulse width output from this laser ranged from 4 ns to 6 ns. Light of a specified wavelength was directed onto a sample sandwiched between two plates in a sample holder. In order to determine the energy which was incident on a sample for each test wavelength, the sample holder was movable in and out of the light beam and an energy meter was located behind the sample position so that the light beam would be directed onto the meter when a sample was not in position. The test wavelengths used were 950 nm, 850 nm, 800 nm and 780 nm. The energy meter was a Scientech AD30 meter employing a calorimetric detector type AC2501H supplied by Scientech.
Samples of the M4, M3 and M35 materials were tested for frequency doubling effect at each of the test wavelengths, the performance of each sample being judged qualitatively by eye by examination of the frequency doubled radiation scattered from the sample. These qualatative assessments were compared with that of a similarly prepared sample of urea having the same particle size as the materials of the invention. […] The M3 and M4 samples were ungraded while the M35 sample was a 212–300 μm graded sample.

[6] = Initial screening of SHG response of powdered samples at 1064 nm; type: physicochemical; details: ungraded powder between glass plates, pulsed Nd:YAG laser 1064 nm, green light judged by eye against ungraded urea or ADP
Description: Samples of all of the materials prepared as described above were first subjected to an initial screening with the results shown in Table 1. For this examination ungraded (as to size) powdered samples of each material were sandwiched between two glass plates which were then held in the path of a pulsed Nd:YAG laser operating at 1064 nm. (Model SL804 from Spectron Laser Systems Ltd). The SHG response was judged by viewing the intensity of green light generated (viewed through laser goggles which passed green light but stopped the fundamental 1064 nm radiation). The SHG activity was qualitatively compared to that of a reference sample which was either ungraded urea or ammonium dihydrogen phosphate (ADP).

[7] = Procedure: as §1
[8] = wavelength 780 nm, energy 16.7 mJ
[9] = wavelength 800 nm, energy 14.8 mJ
[10] = wavelength 850 nm, energy 12.3 mJ

Compound | Phase matching (SHG signal level at 532 nm as a function of particle size) [1] | SHG activity of grown crystals [3] | Frequency doubling compared with urea [5, 8] | Frequency doubling compared with urea [5, 9] | Frequency doubling compared with urea [5, 10] | Frequency doubling compared with urea ([5]; wavelength 950 nm, energy 9 mJ) | SHG Response [6] | also measured
N.O=P(O)(O)O [ADP, ammonium dihydrogen phosphate, reference compound] | phase matching materials |  |  |  |  |  |  | 
NC(N)=O [urea, reference compound] | phase matching materials |  |  |  |  |  |  | 
Morpholinium 3,5-dihydroxybenzoate [Example M35] | does not decrease for increasing particle size | high SHG activity | better | slightly less | same or better | same or better | slightly better than urea | Stability of crystals [2]: stable and do not show any deterioration in quality; Optical transparency limit of single crystal [4]: ≥ 350 mm
Morpholinium 3-fluoro-4-hydroxybenzoate [Example M3F4] |  |  |  |  |  |  | slightly weaker than that of urea | 
Morpholinium 3-hydroxybenzoate [Example M3] | does not decrease for increasing particle size | exhibit SHG activity | Less | Much less | Less | Slightly less | slightly weaker than urea | 
Morpholinium 4-hydroxybenzoate [Example M4] | does not decrease for increasing particle size | high SHG activity | Slightly less | Slightly less | Slightly less | Better | better than for urea | Relative solubility ([7]; IPA compared with ethanol): less soluble in IPA; Amount in saturated solution ([7]; in 820 ml of ethanol, saturated solution, 40° C.): 12 g
Morpholinium 4-hydroxycinnamate [Example M4HCA] |  |  |  |  |  |  | greater than that of urea; also recorded: better than urea | 
dimorpholinium 2,3,5,6-tetrafluoro-4-hydroxybenzoate [Example M24F4] |  |  |  |  |  |  | weaker than that of urea but better than for ADP | 
thiomorpholinium 3,5-dihydroxybenzoate [TM35] |  |  |  |  |  |  | slightly better than for urea | 
thiomorpholinium 4-hydroxybenzoate [TM4] |  |  |  |  |  |  | slightly better than for ADP | Stability of crystals [2]: unstable, with the crystals becoming opaque over time
